Test results published in patent US20190352329A1, “BETA-ADRENERGIC BLOCKING COMPOUND” (KING SAUD UNIVERSITY, priority 2018, published 2019).

Columns and labels:
[1] = target: beta adrenergic receptor (Cavia porcellus, UniProt H0W3H1); test: Blockade of isoprenaline inotropic effect in electrically driven guinea pig left atrium; type: cell-based; conditions: result in words
[2] = 6-week application, daily dose of 60 mg/kg b.w., i.p.; cited from earlier work

beta adrenergic receptor, sequence (H0W3H1 1-470): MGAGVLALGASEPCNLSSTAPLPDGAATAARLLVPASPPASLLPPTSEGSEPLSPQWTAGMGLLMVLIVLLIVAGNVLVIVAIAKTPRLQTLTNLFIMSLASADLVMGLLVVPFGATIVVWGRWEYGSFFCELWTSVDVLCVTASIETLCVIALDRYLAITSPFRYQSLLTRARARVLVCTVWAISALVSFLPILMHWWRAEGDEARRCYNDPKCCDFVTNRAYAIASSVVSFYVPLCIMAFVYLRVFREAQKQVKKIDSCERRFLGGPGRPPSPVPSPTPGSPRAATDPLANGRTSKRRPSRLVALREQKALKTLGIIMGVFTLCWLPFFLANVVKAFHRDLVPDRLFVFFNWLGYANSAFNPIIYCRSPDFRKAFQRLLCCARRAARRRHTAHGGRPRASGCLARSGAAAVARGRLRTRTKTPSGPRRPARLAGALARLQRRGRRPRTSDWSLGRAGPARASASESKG

Compound | blockade of the isoprenaline inotropic response [1] | direct cardiac effect (heart rate decrease) [2] [%]
COC(=O)C12CCC(C)C(C)C1C1=CCC3C4(C)CCC(OCC(O)CNC(C)C)C(C)(C)C4CCC3(C)C1(C)CC2 (stereo not drawn) [Compound 3a, methyl 3-β-[2-hydroxy-3-(isopropylamino)propoxy]-urs-12-en-28-oate] | blocked the isoprenaline inotropic response almost fully | –
CC1(C)CC[C@]2(C(=O)O)CC[C@]3(C)C(=CC[C@@H]4[C@@]5(C)CC[C@H](O)C(C)(C)[C@@H]5CC[C@]43C)[C@@H]2C1 [Oleanolic] | – | 34
COC(=O)C12CCC(C)C(C)C1C1=CCC3C4(C)CCC(OCC(O)CNCC(C)C)C(C)(C)C4CCC3(C)C1(C)CC2 (stereo not drawn) [Compound 3b, methyl-3-β-[2-hydroxy-3-(isobutylamino)propoxy]-urs-12-en-28-oate] | blocked the isoprenaline inotropic response almost fully | –
